According to ChEMBL document CHEMBL1201862, “PubChem BioAssay data set” (2004):
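Values below derive from 48-hour exposures of cells grown in 96-well plates, with endpoints linearly interpolated between the two concentrations bracketing the appropriate inhibition level. Here, GI50 denotes the concentration required for 50% inhibition of growth.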 The source made the active and inactive calls. Cut-off read from the data, not from the text of the source: active = GI50 up to about 1.1 µM and inactive = higher.

Experiments:
Experiment in all cases: growth of human tumour cells (NCI), 48 h
A549 = tested on: A549
BT-549 = tested on: BT-549
CAKI-1 = tested on: CAKI-1
HCC 2998 = tested on: HCC 2998
HCT-116 = tested on: HCT-116
KM12 = tested on: KM12
MCF7 = tested on: MCF7
MOLT-4 = tested on: MOLT-4
NCI-H23 = tested on: NCI-H23
OVCAR-3 = tested on: OVCAR-3
OVCAR-4 = tested on: OVCAR-4
PC-3 = tested on: PC-3
RPMI-8226 = tested on: RPMI-8226
SF-268 = tested on: SF-268
SK-MEL-28 = tested on: SK-MEL-28
SK-MEL-2 = tested on: SK-MEL-2
SR = tested on: SR
SW-620 = tested on: SW-620
UACC-257 = tested on: UACC-257
NCI-H460 = tested on: NCI-H460

Measured: GI50

CCOC(=O)C(Cl)(NC(=O)c1c(F)c(F)c(F)c(F)c1F)C(F)(F)F (centres undefined)
inactive: A549 > 100 µM | BT-549 > 100 µM | CAKI-1 20 µM | HCC 2998 > 100 µM | HCT-116 > 100 µM | KM12 > 100 µM | MCF7 > 100 µM | MOLT-4 > 100 µM | NCI-H23 > 100 µM | OVCAR-3 > 100 µM | OVCAR-4 > 100 µM | PC-3 > 100 µM | RPMI-8226 > 100 µM | SF-268 > 100 µM | SK-MEL-28 > 100 µM | SK-MEL-2 > 100 µM | SR 9.4 µM | SW-620 > 100 µM | UACC-257 > 100 µM

O=C(O)[C@@H]1[C@H](C(=O)O)[C@H](C(=O)O)C[C@@H]1C(=O)O
inactive: A549 > 100 µM | BT-549 > 100 µM | CAKI-1 > 100 µM | HCT-116 > 100 µM | KM12 > 100 µM | MCF7 > 100 µM | MOLT-4 > 100 µM | NCI-H23 > 100 µM | NCI-H460 > 100 µM | OVCAR-3 > 100 µM | OVCAR-4 > 100 µM | PC-3 > 100 µM | RPMI-8226 > 100 µM | SF-268 > 100 µM | SK-MEL-28 > 100 µM | SK-MEL-2 > 100 µM | SR > 100 µM | SW-620 > 100 µM | UACC-257 > 100 µM

O=C(O[C@H](/C=C/c1ccccc1)P1(=O)N(Cc2ccccc2)[C@H]2CCCC[C@@H]2N1Cc1ccccc1)c1ccccc1
inactive: A549 3.7 µM | BT-549 5.56 µM | CAKI-1 2.17 µM | HCC 2998 8.18 µM | HCT-116 2.79 µM | KM12 3.41 µM | MCF7 3.51 µM | NCI-H23 3.51 µM | NCI-H460 3.72 µM | OVCAR-3 3.94 µM | OVCAR-4 1.49 µM | PC-3 3.58 µM | RPMI-8226 3.42 µM | SF-268 4.12 µM | SK-MEL-28 8.83 µM | SK-MEL-2 2.39 µM | SR 3.35 µM | SW-620 3.72 µM | UACC-257 9.84 µM

CC(C)N(C(=O)C12C3(C(=O)OC(C)(C)C)C4C5(C#N)C3C1(C(=O)OC(C)(C)C)C5C42C(=O)OC(C)(C)C)C(C)C (centres undefined)
inactive: A549 93.5 µM | BT-549 > 100 µM | CAKI-1 37.3 µM | HCC 2998 97.9 µM | HCT-116 19.8 µM | KM12 > 100 µM | MCF7 14.4 µM | MOLT-4 13.6 µM | NCI-H23 > 100 µM | NCI-H460 75.7 µM | OVCAR-3 47.8 µM | OVCAR-4 71.6 µM | PC-3 51.1 µM | SF-268 > 100 µM | SK-MEL-28 29.4 µM | SK-MEL-2 > 100 µM | SR 21.7 µM | SW-620 24.9 µM | UACC-257 28.9 µM

O=C(O)C(Cc1cccs1)C(=O)O
inactive: A549 > 100 µM | BT-549 > 100 µM | CAKI-1 > 100 µM | HCC 2998 > 100 µM | HCT-116 > 100 µM | KM12 > 100 µM | MCF7 > 100 µM | NCI-H23 > 100 µM | NCI-H460 > 100 µM | OVCAR-3 > 100 µM | OVCAR-4 > 100 µM | PC-3 > 100 µM | RPMI-8226 > 100 µM | SF-268 > 100 µM | SK-MEL-28 > 100 µM | SK-MEL-2 > 100 µM | SR > 100 µM | SW-620 > 100 µM | UACC-257 > 100 µM

COc1ccc(CNc2nc3cc(C(F)(F)F)ccc3nc2C(=O)O)cc1
inactive: A549 28.8 µM | BT-549 23.3 µM | CAKI-1 35.8 µM | HCC 2998 31.6 µM | HCT-116 19.2 µM | KM12 22.4 µM | MCF7 25 µM | MOLT-4 21.8 µM | NCI-H23 24.5 µM | NCI-H460 31.4 µM | OVCAR-3 15.3 µM | OVCAR-4 32.9 µM | PC-3 31.2 µM | RPMI-8226 39.3 µM | SK-MEL-28 37.3 µM | SK-MEL-2 23.1 µM | SR 24.5 µM | SW-620 31.1 µM | UACC-257 24.8 µM

N#CC(C#N)=C1C(C#N)=C(N)NC12OCCO2
inactive: A549 > 100 µM | BT-549 > 100 µM | CAKI-1 > 100 µM | HCC 2998 > 100 µM | HCT-116 > 100 µM | KM12 > 100 µM | MCF7 > 100 µM | MOLT-4 > 100 µM | NCI-H23 > 100 µM | NCI-H460 > 100 µM | OVCAR-4 > 100 µM | PC-3 > 100 µM | RPMI-8226 > 100 µM | SF-268 > 100 µM | SK-MEL-28 > 100 µM | SK-MEL-2 > 100 µM | SR > 100 µM | SW-620 > 100 µM | UACC-257 > 100 µM

COc1ccc(NC(=O)C(C#N)=C(SC)SC)cc1
inactive: A549 > 100 µM | BT-549 > 100 µM | CAKI-1 50.5 µM | HCC 2998 > 100 µM | HCT-116 > 100 µM | MCF7 > 100 µM | MOLT-4 > 100 µM | NCI-H23 > 100 µM | NCI-H460 > 100 µM | OVCAR-3 > 100 µM | OVCAR-4 > 100 µM | PC-3 > 100 µM | RPMI-8226 > 100 µM | SF-268 > 100 µM | SK-MEL-28 > 100 µM | SK-MEL-2 > 100 µM | SR > 100 µM | SW-620 > 100 µM | UACC-257 > 100 µM

C=C1c2nc3ccccc3n2C=C(c2ccc(Cl)cc2)N1c1ccc(OC)cc1
inactive: A549 10.9 µM | BT-549 2.67 µM | CAKI-1 4.58 µM | HCC 2998 8.85 µM | HCT-116 6.97 µM | KM12 6.81 µM | MCF7 7.4 µM | MOLT-4 73.1 µM | NCI-H23 9.95 µM | NCI-H460 6.47 µM | OVCAR-3 10.8 µM | OVCAR-4 6 µM | PC-3 15.4 µM | RPMI-8226 14.5 µM | SK-MEL-28 7.57 µM | SK-MEL-2 22.9 µM | SR 11.2 µM | SW-620 17.7 µM | UACC-257 5.07 µM

CC(C)[Si]1(C(C)C)OCC2OC(n3ccc(=O)[nH]c3=O)C(O)(CO)C2O[Si](C(C)C)(C(C)C)O1 (centres undefined)
inactive: A549 14.4 µM | BT-549 16.8 µM | CAKI-1 15.8 µM | HCT-116 14.3 µM | KM12 16.5 µM | MCF7 15.1 µM | MOLT-4 12.3 µM | NCI-H23 3.62 µM | OVCAR-3 15.8 µM | OVCAR-4 13.8 µM | PC-3 13 µM | RPMI-8226 9.82 µM | SF-268 13.8 µM | SK-MEL-28 19.3 µM | SK-MEL-2 16.7 µM | SR 12.9 µM | SW-620 17.1 µM | UACC-257 15.3 µM

c1ccc2[nH]c3[nH]c4[nH]c5ccccc5[nH]c4[nH]c3[nH]c2c1
inactive: A549 > 100 µM | BT-549 > 100 µM | CAKI-1 > 100 µM | HCC 2998 > 100 µM | HCT-116 > 100 µM | KM12 > 100 µM | MCF7 > 100 µM | MOLT-4 > 100 µM | NCI-H23 > 100 µM | NCI-H460 > 100 µM | OVCAR-3 > 100 µM | PC-3 > 100 µM | RPMI-8226 > 100 µM | SF-268 > 100 µM | SK-MEL-28 > 100 µM | SK-MEL-2 > 100 µM | SR > 100 µM | SW-620 > 100 µM | UACC-257 > 100 µM

O=c1c2ccccc2n2n1Cc1ccccc1C2
inactive: A549 > 100 µM | BT-549 > 100 µM | CAKI-1 > 100 µM | HCC 2998 > 100 µM | HCT-116 > 100 µM | KM12 > 100 µM | MCF7 > 100 µM | MOLT-4 > 100 µM | NCI-H23 > 100 µM | NCI-H460 > 100 µM | OVCAR-3 > 100 µM | OVCAR-4 > 100 µM | PC-3 > 100 µM | RPMI-8226 > 100 µM | SF-268 > 100 µM | SK-MEL-28 > 100 µM | SR > 100 µM | SW-620 > 100 µM | UACC-257 > 100 µM

O=C(O)c1cccc(C(=O)O)c1[S+]([O-])Cc1ccccc1 (centres undefined)
inactive: A549 > 100 µM | BT-549 > 100 µM | CAKI-1 > 100 µM | HCC 2998 > 100 µM | HCT-116 > 100 µM | KM12 > 100 µM | MCF7 > 100 µM | NCI-H23 > 100 µM | NCI-H460 > 100 µM | OVCAR-3 > 100 µM | OVCAR-4 > 100 µM | PC-3 > 100 µM | RPMI-8226 > 100 µM | SF-268 > 100 µM | SK-MEL-28 > 100 µM | SK-MEL-2 > 100 µM | SR > 100 µM | SW-620 > 100 µM | UACC-257 > 100 µM

CC#CCCCC1(C)CCNC1=S (centres undefined)
inactive: A549 > 10 µM | BT-549 > 10 µM | HCC 2998 > 10 µM | KM12 > 10 µM | MCF7 > 10 µM | MOLT-4 > 10 µM | NCI-H23 > 10 µM | NCI-H460 > 10 µM | OVCAR-3 > 10 µM | OVCAR-4 > 10 µM | PC-3 > 10 µM | SF-268 > 10 µM | SK-MEL-2 > 10 µM | SR > 10 µM | SW-620 > 10 µM | UACC-257 > 10 µM

CC(=O)C(=CNc1c(C)n(C)n(-c2ccccc2)c1=O)C(C)=O
inactive: A549 > 100 µM | BT-549 > 100 µM | CAKI-1 > 100 µM | HCC 2998 > 100 µM | HCT-116 > 100 µM | KM12 > 100 µM | MCF7 > 100 µM | MOLT-4 > 100 µM | NCI-H23 > 100 µM | OVCAR-3 > 100 µM | OVCAR-4 > 100 µM | PC-3 > 100 µM | RPMI-8226 > 100 µM | SK-MEL-2 > 100 µM | SR > 100 µM | SW-620 > 100 µM | UACC-257 > 100 µM
